Laboratory results from ChEMBL document CHEMBL1127502, “Mixed 5-HT1A/D-2 activity of a new model of arylpiperazines: 1-aryl-4-[3-(1,2-dihydronaphthalen-4-yl)-n-propyl]piperazines. 1. Synthesis and structure-activity relationships” (J Med Chem, 1994).

Assays:
[1] = biological target: T1, 5-hydroxytryptamine receptor 1A (Rattus norvegicus, UniProt P19327); assay: In vitro ability to inhibit binding of radioligand [3H]8-OH-DPAT to 5-hydroxytryptamine 1A receptor in rat cerebral cortex; type: tissue-based
T1 sequence (P19327 whole entry): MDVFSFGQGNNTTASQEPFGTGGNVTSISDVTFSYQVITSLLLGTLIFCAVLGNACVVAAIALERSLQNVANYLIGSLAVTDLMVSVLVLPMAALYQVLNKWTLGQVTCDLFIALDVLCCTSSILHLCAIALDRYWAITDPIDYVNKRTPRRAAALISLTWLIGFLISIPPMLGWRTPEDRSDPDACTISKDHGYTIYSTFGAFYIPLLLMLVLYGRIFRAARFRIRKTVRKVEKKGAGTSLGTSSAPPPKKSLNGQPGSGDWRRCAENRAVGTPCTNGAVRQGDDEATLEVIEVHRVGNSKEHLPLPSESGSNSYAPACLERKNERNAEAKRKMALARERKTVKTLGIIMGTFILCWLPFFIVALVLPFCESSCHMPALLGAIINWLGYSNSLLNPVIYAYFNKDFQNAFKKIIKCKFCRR

[2] = biological target: Serotonin 2 (5-HT2) receptor (Rattus norvegicus, UniProt P30994+P08909+P14842); assay: Inhibition of binding of radioligand [3H]ketanserin to 5-hydroxytryptamine 2 receptor in rat cerebral cortex; type: tissue-based
D(2) dopamine receptor [3] = biological target: T2, D(2) dopamine receptor (Rattus norvegicus, UniProt P61169); assay: Inhibition of binding of radioligand [3H]spiroperidol to dopamine D2 receptor in rat striatal membranes; type: cell membranes, Membrane
Rattus norvegicus = assay: Effective dose required to inhibit behavior effects induced by 8-OH-DPAT in reserpinized rats after subcutaneous administration; type: functional; settings: sc
D(2) dopamine receptor [4] = biological target: T2, D(2) dopamine receptor; assay: In vitro ability to inhibit binding of radioligand [3H]spiroperidol to dopamine D2 receptor in rat corpora striata
D(2) dopamine receptor [5] = biological target: T2, D(2) dopamine receptor; assay: In vito ability to inhibit binding of radioligand [3H]spiroperidol to dopamine D2 receptor in rat corpora striata
D(2) dopamine receptor [6] = biological target: T2, D(2) dopamine receptor; assay: In vitro ability to inhibit binding of radioligand [3H]spiroperidol to dopamine D2 receptor in rat striatal membranes; type: cell membranes, Membrane

T2 sequence (P61169 whole entry): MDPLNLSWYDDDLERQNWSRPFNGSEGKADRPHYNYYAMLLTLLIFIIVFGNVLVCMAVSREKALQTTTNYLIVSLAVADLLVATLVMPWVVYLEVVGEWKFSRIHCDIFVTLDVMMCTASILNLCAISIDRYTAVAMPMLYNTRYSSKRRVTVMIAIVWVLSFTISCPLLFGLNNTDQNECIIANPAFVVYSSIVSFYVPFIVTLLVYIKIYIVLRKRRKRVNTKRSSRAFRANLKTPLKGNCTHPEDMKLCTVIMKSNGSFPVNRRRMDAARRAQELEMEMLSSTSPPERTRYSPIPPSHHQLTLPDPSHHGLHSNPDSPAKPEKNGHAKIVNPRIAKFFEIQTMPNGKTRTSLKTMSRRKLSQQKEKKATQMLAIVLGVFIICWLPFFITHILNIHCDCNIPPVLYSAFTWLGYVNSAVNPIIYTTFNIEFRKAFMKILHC

| SMILES | IC50 [1] [nM] | IC50 [2] [nM] | IC50 (D(2) dopamine receptor [3]) [nM] | Ki [1] [nM] | Ki (D(2) dopamine receptor [4]) [nM] | Ki (D(2) dopamine receptor [5]) [nM] | Ki (D(2) dopamine receptor [6]) [nM] | ED50 (Rattus norvegicus) [mg/kg] |
| --- | --- | --- | --- | --- | --- | --- | --- | --- |
| COc1ccc2c(c1)CCC=C2CCCN1CCN(c2cc(OC)ccc2OC)CC1 | 161 | 932 | 201 | – | – | – | – | – |
| COc1ccccc1N1CCN(CCCC2=CCCc3cccc(OC)c32)CC1 | 8.8 | 770 | 17.4 | – | – | – | – | – |
| COc1ccc2c(c1)CCC=C2CCCN1CCNCC1 | > 10000 | > 10000 | > 10000 | – | – | – | – | – |
| COc1cccc2c1C(CCCN1CCN(c3ccccc3)CC1)=CCC2 | – | 204 | 303 | – | – | – | – | – |
| COc1cccc2c1C(CCCN1CCN(c3ccccn3)CC1)=CCC2 | 1.4 | 205 | 119 | 1.26 | – | 29.5 | – | – |
| COc1ccccc1N1CCN(CCCC2=CCCc3ccccc32)CC1 | 15.7 | 104 | 14.7 | – | – | – | – | – |
| COc1ccccc1N1CCN(CCCCN2C(=O)c3ccccc3C2=O)CC1 [NAN-190] | – | – | – | – | – | – | 9.55 | – |

The remaining molecules from weak to strong by IC50 (D(2) dopamine receptor [3]), led by results:

| IC50 [1] [nM] | IC50 [2] [nM] | IC50 (D(2) dopamine receptor [3]) [nM] | Ki [1] [nM] | Ki (D(2) dopamine receptor [4]) [nM] | Ki (D(2) dopamine receptor [5]) [nM] | Ki (D(2) dopamine receptor [6]) [nM] | SMILES | ED50 (Rattus norvegicus) [mg/kg] |
| --- | --- | --- | --- | --- | --- | --- | --- | --- |
| 138 | 1170 | 1290 | – | – | – | – | COc1ccc2c(c1)CCC=C2CCCN1CCN(c2cccc(C(F)(F)F)c2)CC1 | – |
| 63.6 | 146 | 778 | – | – | – | – | COc1ccc2c(c1)CCC=C2CCCN1CCN(c2ccccn2)CC1 | – |
| 147 | 119 | 777 | – | – | – | – | COc1ccc2c(c1)CCC=C2CCCN1CCN(c2ccccc2)CC1 | – |
| 131 | 133 | 768 | – | – | – | – | COc1ccc2c(c1)CCC=C2CCCN1CCN(c2cccc(Cl)c2)CC1 | – |
| 55.9 | 2370 | 644 | – | – | – | – | COc1cccc2c1C(CCCN1CCN(c3cccc(C(F)(F)F)c3)CC1)=CCC2 | 24.2 |
| 31.4 | 1340 | 484 | – | – | – | – | COc1cccc2c1C(CCCN1CCN(c3cccc(Cl)c3)CC1)=CCC2 | – |
| 2 | 391 | 90.6 | 1.78 | 22.4 | – | – | COc1ccc2c(c1)CCC=C2CCCN1CCN(c2ccccc2OC)CC1 | 0.76 |
